1 compound from US20260224680A1, “COMPOSITIONS FOR INDUCING OR RESCUING GLYCOLYSIS AND METHODS OF USE THEREOF” (Arizona Board of Regents on behalf of Arizona State …, priority 2023, published 2026) can be followed below.

Assay [1] has as its system DCs. Nature of the assay: Extracellular flux assays on DCs in vitro (ECAR, respiration). It is filed as cell-based, mouse. Here is the method:
(§1) Data represented as mean±std error.
Next, the ability of the F16BP MPs to rescue glycolysis in DCs in the presence of glycolytic inhibitor PFK15 was evaluated using extracellular flux assays. DCs were cultured with either PFK15, F16BP MPs, soluble fructose-6-phosphate (F6P—upstream of PFKFB3) or PFK15+F16BP MPs, or individual components of the F16BP MPs for 2 hr, and extracellular acidification rate (ECAR—rate of glycolysis) measurements were obtained. […] This is important since under conditions of inflammation, DCs need to perform enhanced levels of glycolysis to support the inflammatory protein production.

In assay [2] the test system is DCs. Nature of the assay: DC activation by flow cytometry in vitro. The note with it: in the presence of poly(IC); PFK15 conc.=25 μM. The format is cell-based, mouse.
From the text: as §1
To test if F16BP MPs can modulate the function of DCs, mRNA-based and peptide-based vaccine F16BP MPs were formulated. These vaccines were generated by intercalating di-phosphorylated melanoma peptide antigen Tyrosine related protein 2 (pTRP2), and poly(IC) and mRNA derived from melanoma cells, which contain several phosphate groups in their backbone (FIG. 12). Since pTRP2p, and poly(IC) have phosphate groups, these molecules can be incorporated into the F16BP MPs using the calcium-phosphate chemistry. The amount of pTRp2, and poly(IC) incorporated within the F16BP MPs was determined to be 78±3.4, and 50.9±7.9 μg, respectively. Next, F16BP MPs intercalated with poly(IC) and pTRP2 were incubated with DCs overnight, and flow cytometry was utilized to test if these particles could activate DCs (FIG. 2I and FIG. 2J).

The test system of assay [3] is B16F10 tumors. Nature of the assay: B16F10 melanoma model, adoptive transfer of Vacc DCs with PFK15. The format is in vivo, mouse. The note with it: day 16; vs no treatment control. Here is the method:
To test the versatility of the F16BP-PFK15 system, another aggressive B16F10 melanoma model was chosen (FIG. 4A). In this model, DCs were loaded with F16BP MPs intercalated with mRNA isolated from B16F10 cancer cells, and poly(IC) (Vacc DCs) and adoptively transferred in mice containing B16F10 tumors. This cellular therapy's ability to modulate adaptive immune responses, reduced tumor growth, and improve survival were measured.
To test if the metabolic rescue in DCs can be applied to adoptive cell therapy, adoptive transfer of DC-vaccines was tested in mice (FIG. 16). […] Specifically, 0.75×10^6 B16F10 cells were injected in C57BL/6j immunocompetent mice, and PFK15 was injected every alternate day for the duration of the study (FIG. 16). Moreover, ex vivo DCs loaded with F16BP(mRNA+poly(IC)) (Vacc DCs) or DCs loaded with F16BP MPs were adoptively transferred using retro-orbital injections (RO) on days 6 and 19 (FIG. 15).
To test if the Vacc DCs could modulate the immune responses after their administration, on day 16, spleen, lymph nodes, and tumors were isolated from different conditions and stained for the activation profile of DCs, and T cells. […]
Since Vacc DCs are administered systemically, spleen and cervical lymph nodes were also analysed for the changes in innate and adaptive immune responses (FIG. 19 through FIG. 22).

The test system of assay [4] is B16F10 cancer cells. Description: Proliferation assay using MTT, B16F10. The format is cell-based, mouse. The note with it: in vitro.
Assay [5] relates to YUMM1.1 cancer cells. Description: Proliferation assay using MTT, YUMM1.1. The note with it: in vitro. The format is cell-based, mouse.
The mark [6] stands for this setting: DCs cultured 2 hr, vs no treatment control.

For `O=C(/C=C/c1ccc2ccccc2n1)c1ccncc1` [PFK15], in assay [1] (setting [6]), the “glycolysis (ECAR)” value is recorded as “lower than no treatment control” and the “glycolytic capacity (ECAR)” value was “lower than no treatment control”. For the same compound, in assay [1] (in the presence of poly(IC)), the “glycolysis (ECAR)” value is reported as “decreased” and the “glycolytic capacity (ECAR)” value is “decreased”. The “activation of DCs (CD80+CD86+ in CD11c+)” value in assay [2] was “able to decrease”. Further, the “total number of CD8+ T cells in the tumor” value in assay [3] was “significantly decreased”. The “proliferation of B16F10 cancer cells” value in assay [4] is “effective in preventing proliferation”. Further, the “proliferation of YUMM1.1 cancer cells” value in assay [5] was “effective in preventing proliferation”.
